The test system of one assay is adjuvant edema. Kind of assay: Preventive Adjuvant Edema test (antiinflammatory activity). Type of assay: in vivo. The note with it: po.
The subject of assay [1] is Phenylquinone-induced writhing. Kind of assay: Effects on Phenylquinone-Induced Writhing in Mice test (analgesic activity). Type of assay: in vivo. The note with it: Mus musculus, po, read-out: antinociceptive ED50. Background: An intraperitoneal irritant provokes the stretching counted in writhing tests.

Like-named read-outs stand apart in the source and are kept apart here.

The ED50 is the midpoint of the dose-response relation. For `CC(=O)Oc1ccccc1C(=O)O` [aspirin], the ED50 in the assay with adjuvant edema was determined as 184 mg/kg; in assay [1] it was 54 mg/kg.

Take `CCc1cccc2c3c([nH]c12)C(CC)(CC(=O)O)OCC3` (stereo not shown) [etodolac, 1,8-Diethyl-1,3,4,9-tetrahydropyrano[3,4-b]indole-1-acetic Acid]: the median effective dose (ED50) in the assay with adjuvant edema (Preventive Adjuvant-Edema, p.o., read-out: ED50) was 4 mg/kg; in assay [1] (Phenylquinone-induced writhing in mice, p.o.) it was 154 mg/kg.

Source of the values: patent US4585877A, “Process for preparing 1,8-diethyl-1,3,4,9-tetrahydropyrano(3,4-b)-indole-1-acetic acid, etodolac” (American Home Products Corporation, priority 1985, dated 1986).
